Test results: patent EP1300145A1, “THERAPEUTIC OR […] FOR MOOD DISORDERS OR ANXIETY DISORDERS” (TORAY INDUSTRIES, INC., priority 2000, dated 2002)

What was measured:
[1] = test system: male ICR mice; assay: forced swim test in mice (antidepressant effect); type: in vivo; settings: for Immobility time: Saline,s.c. 136.3 ± 11.4; for antidepressant effect: subcutaneous, overall statement in words
From the text: (§1) The isoquinoline derivative represented by formula (I) has a marked effect in the forced swim test, which is the animal model for mood disorder, and in the elevated plus-maze test, which is the animal model for anxiety disorder. Thus, the isoquinoline derivative can be used as a drug for curing or preventing mood disorder or anxiety disorder of mammal and, in particular, human beings. It may also be used in manufacturing of a medicament for curing or preventing mood disorder or anxiety disorder. The evaluation using the above-described animal models can be conducted by a method described in published references [Nature vol. 266, 730 (1977) or Jpn. J. Psychopharmacol vol. 15, 125 (1995)], but the method is not limited to this.
In the experiment, male ICR mice were used. In the forced swim test, the tank for forced swim used was a transparent cylindrical tank made of plastic (inner diameter: 10 cm, height: 30 cm), and water at 25°C was contained up to 14 cm in height. A mouse was placed in water, and its swimming time during 2 to 6 minutes after placement was measured. The drug was subcutaneously administered 30 minutes before testing. The vertical axis indicates the swimming time (sec) during the measurement time (4 min). The open column indicates a saline-treated group and the hatched columns indicate Compound 1 treatment groups. All data are indicated by average ±standard error. In a significance test, the difference was assumed to be significant at a significance level of 5% or less by Dunnett's multiple comparison. In the test, the drug is assumed to have an antidepressant effect when there is an increase in swimming time under administration.
The antidepressant effect of Compound 3, 5, and 6 was assessed as in Example 3. […]

[2] = test system: male SD rats; assay: elevated plus-maze test in rats (antianxiety effect); type: in vivo; settings: subcutaneous; for Time spent on open arms: 30 minutes after administration, 3 minute test, Saline,s.c. 19.1 ± 6.3; for antianxiety effect: overall statement in words
From the text: as §1
The experiment was conducted on male SD rats. In the elevated plus-maze test, the elevated plus-maze (manufactured by NeuroScience, Inc.) consisting of closed arms and open arms was used. In the experiment, a rat was placed on an open arm 30 minutes after the drug administration (subcutaneous administration), and the number of entries to the open and closed arms and the time spent in the open arms were measured. The test was conducted for 3 minutes. The rat was assumed to have made entries when all four legs have entered the arm. The ratio of the time spent in the open arms and the ratio of the entries to the open arms were calculated according to the following equations: Ratio of the time spent in the open arms (%) = {(time spent in the open arms)/(total time)} × 100 [formula] Ratio of the entries to the open arms (%) = {(number of entries to the open arms)/(total number of entries)} × 100 [formula]
The vertical axis on the left indicates the ratio of the time spent in the open arms (%) and the ratio of the entries to the open arms (%). The vertical axis on the right indicates the total number of entries. The horizontal axis indicates a control group and treatment groups. Open columns indicate the ratio of the time spent in the open arms (%) and hatched columns indicate the ratio of the entries to the open arms (%). Closed circles indicate the total number of entries. All data are indicated by average ±standard error. In a significance test, the difference was assumed to be significant at a significance level of 5% or less by Dunnett's multiple comparison. In the test, the drug is assumed to have an antianxiety effect when there are an increase in time spent on open arms and an increase in ratio of entries to open arms under administration.
The antianxiety effect of Compounds 3, 5, and 6 was assessed as in Example 1. […]

[3] = 30 mg/kg, subcutaneous 30 minutes before testing
[4] = Fig. 1, compared with the control group (saline-treated group), Dunnett's multiple comparison

Row | Structure (SMILES) | Immobility time [1, 3] [s] | antidepressant effect [1] | Time spent on open arms ([2]; 30 mg/kg) [s] | antianxiety effect [2] | Immobility time ([1]; 10 mg/kg, subcutaneous 30 minutes before testing) [s] | Time spent on open arms ([2]; 10 mg/kg) [s] | swimming time ([1]; subcutaneous 30 minutes before testing, 2 to 6 minutes after placement, Fig. 2, compared with the control group (saline-treated group)) | ratio of the entries to open arms [2, 4] | time spent in open arms [2, 4]
1 | Cc1c2c(nc3ccccc13)C[C@@]1(c3cccc(O)c3)CCN(C)C[C@@H]1C2 (relative stereo) [Compound 3, 2-methyl-4aα-(3-hydroxyphenyl)-11-methyl-1,2,3,4,4a,5,12,12aβ-octahydro-quinolino[2,3-g]isoquinoline] | 75.4 ± 11.6 | significant antidepressant effect | 36.6 ± 13.2 | significant antianxiety effects |  |  |  |  | 
2 | CN1CC[C@]2(c3cccc(O)c3)Cc3nc4ccccc4c(N)c3C[C@H]2C1 (relative stereo) [Compound 5, 2-methyl-4aα-(3-hydroxyphenyl)-11-amino-1,2,3,4,4a,5,12,12aβ-octahydro-quinolino[2,3-g]isoquinoline] |  | significant antidepressant effect |  | significant antianxiety effects | 94.3 ± 13 | 25.4 ± 10.2 |  |  | 
3 | Oc1cccc([C@]23CCN(CCc4ccccc4)C[C@@H]2Cc2cc4ccccc4nc2C3)c1 (relative stereo) [Compound 6, 2-phenethyl-4aα-(3-hydroxyphenyl)-1,2,3,4,4a,5,12,12aβ-octahydro-quinolino [2,3-g]isoquinoline] | 58.7 ± 9.1 | significant antidepressant effect | 37.9 ± 4.4 | significant antianxiety effects |  |  |  |  | 
4 | CN1CC[C@]2(c3cccc(O)c3)Cc3nc4ccccc4cc3C[C@@H]2C1 [Compound 1, (4aS,12aS)-2-methyl-4a-(3-hydroxyphenyl)-1,2,3,4,4a,5,12,12a-octahydroquinolino[2,3-g]isoquinoline] |  | confirmed to have an antidepressant effect |  | confirmed to have an antianxiety effect |  |  | dose-dependent significant increase | dose-dependent significant increase | dose-dependent significant increase
